One assay concerns MYD88 locus. The note with it: 72 hr treatment with TCP (1 uM), AML cell lines THP-1 and MV4-11, relative to untreated cells.
For assay [1] the following is noted: cited from earlier work.

The structures appear in SMILES notation.

Procedure for MYD88 locus: Two AML (acute myeloid leukemia) cell lines THP-1 and MV4-11 were tested with the above compound. […] The positions across the gene have been created and selected based on restriction sites and other features of detection and primer efficiency and were then analysed for interactions. […] Below are the PCR EpiSwitch™ marker results for the MyD88 locus for cell lines THP-1 and MV4-11. FACS analysis was used to sort for the expression of CD11b± cells, as an indicator of differentiation.
However, epigenetic changes observed for chromosome signatures are clean to follow a binary format of 0 or 1.

In the case of `N[C@@H]1C[C@H]1c1ccccc1` (racemic) [TCP, tranylcypromine], the “fold change at MYD88 locus (GEX and EpiSwitch)” value in the assay on MYD88 locus was 1.5 fold.

For the molecule `Nc1nc2ccc(OC(F)(F)F)cc2s1` [riluzole], in assay [1], the “effect on lifespan of ALS patients” value was “modest increase in lifespan”.

The values above are taken from patent US11802305B2, “Detection processes using sites of chromosome interaction” (Oxford Biodynamics PLC, priority 2015, dated 2023).
